Like-named read-outs stand apart in the source and are kept apart here.
Experiments:
[1] = molecular target: T1, HusA L123N-V124N (Porphyromonas gingivalis, UniProt Q7MSY3, L123N/V124N); experiment: Tryptophan fluorescence quenching assay, HusA mutant L123N-V124N; type: binding; details: mutant LV123/4NN
T1 sequence (Q7MSY3 24-218 L123N/V124N): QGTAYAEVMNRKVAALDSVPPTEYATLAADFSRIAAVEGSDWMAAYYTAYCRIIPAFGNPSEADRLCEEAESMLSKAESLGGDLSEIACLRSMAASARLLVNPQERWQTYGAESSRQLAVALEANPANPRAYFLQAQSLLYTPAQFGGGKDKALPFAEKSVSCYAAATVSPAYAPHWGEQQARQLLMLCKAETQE
Procedure: (§1) The quenching of intrinsic tryptophan fluorescence of HusA upon porphyrin additions was measured using a Carey Eclipse Fluorescence Spectrophotometer (Agilent) set to a photo multiplier effect (PME) of 850. A 5-mm path length quartz cuvette was used and all spectra were acquired at room temperature. Excitation was set to 295 nm and emission was measured from 300 nm to 500 nm using excitation/emission slit widths of 5 nm. Binding assays were performed at a protein concentration of 1 μM HusA in standard buffer at a working volume of 0.5 mL. […] The fluorescence quenching of HusA by PPIX was investigated in a similar manner with the following difference: the fluorescence intensities of ten 1 μM HusA samples were measured each with increasing amounts of PPIX after a 2-h incubation period to allow equilibrium to be reached. See Supplementary Methods for correction for inner filter effect and curve fitting. […]
Correction of inner filter effect and curve fitting in tryptophan fluorescence quenching assays The concentration of NATA was chosen such that the raw fluorescence intensity was similar to the 10 uM concentrations of HusA and mutants used. […] Fluorescence intensity was scaled with respect to the starting florescence and corrected for the inner filter effect. Fluorescence at 335 nm was used to fit binding curves. […]

[2] = molecular target: T2, HusA (Porphyromonas gingivalis, UniProt Q7MSY3); experiment: Tryptophan fluorescence quenching assay, HusA wild-type; type: binding
T2 sequence (Q7MSY3 24-218): T1 sequence (Q7MSY3 24-218 L123N/V124N)
Procedure: as §1
Correction of inner filter effect and curve fitting in tryptophan fluorescence quenching assays The concentration of NATA was chosen such that the raw fluorescence intensity was similar to the […] concentrations of HusA and mutants used. The same molarity titrants of porphyrin were titrated into NATA as were added into HusA in the control reactions. Fluorescence intensity was scaled with respect to the starting florescence and corrected for the inner filter effect. Fluorescence at 335 nm was used to fit binding curves.
The correction method is based on Fonin AV., et al.26, noting that a Cary Eclipse spectrofluorimeter […]
performed to measure the contribution to the decrease in fluorescence due to the inner filter effect and this effect was scaled to the starting fluorescence values as fractional changes. The measured fluorescence at each titration point for each of the porphyrin titrations into protein was then adjusted for this contribution. Fluorescence at 335 nm was used to fit binding curves. Association constant, Ka, was fitted using the following equation in Origin, assuming a single binding site. A dissociation constant, Kd, was calculated by taking the inverse of the Ka.
Xobs = XA×f A+XAB×f AB (1) where XA is the corrected fluorescence, fA=1-fAB, fAB=x/(Bt), x=(-b-sqrt(b2-4×c))/2, b=-(1/Ka+At+Bt), c=Bt×At, Bt=total concentration of protein, At=total concentration of ligand.
To aid comparison of the different titrations, the corrected fluorescence was scaled to the starting fluorescence in the absence of porphyrins (i.e. all fluorescence curves have a starting value of one

[3] = molecular target: HusA; details: previously reported; now considered far weaker; cited from earlier work
[4] = system: P. gingivalis wild type W83; experiment: Time-kill experiment with high and low densities of bacteria, iron limited; type: cell-based, Porphyromonas gingivalis
Procedure: Supplementary Figure 22. Time-kill experiment with high and low densities of P. gingivalis wild type W83 in the presence of P8 antibiotic under iron limited condition. (A) Representative planktonic growth curves show control P. gingivalis culture without P8 antibiotic (filled dark blue circle), P8 at 0.5 µM (light blue circle) and 2.5 µM (dash-filled light blue circle) added at the commencement of growth. (B) Representative planktonic growth curves shown control P. gingivalis culture without P8 antibiotic (filled dark blue circle), P8 at 0.5 µM (dash-filled light blue circle) and 2.5 µM (filled light blue circle) added to the exponentially growing cultures.
(1 picture or pasted object on this page, not shown here) […]
1) Fig. 1A still needs confirmation with the inclusion of two additional panels.
(a) Effect of 0.5 µM P8 added to the culture prior to the commencement of growth. (b) Effect of adding 0.5 µM P8 to actively growing cultures of P. gingivalis W83
Response: The growth curve studies, including addition of 0.5µM P8 prior to the commencement of […]
the commencement of growth (low bacteria density).
2.5 µM P8 under the same condition. When added to the actively growing culture (high bacteria density) of P. gingivalis W83, both 0.5 µM and 2.5 µM P8 retard growth with the 2.5 µM P8 treatment achieving a relative lower density at stationary phase. The MIC of P8 is correlated to the initial bacteria densities in the inoculum. Udekwu et al. have reported that higher concentration of antibiotics is required to achieve the MIC when treating higher densities of bacteria albeit with variation according to class of drug […]
As P8 is introduced in the later section of the main text, we have presented the results as Supplementary […]
is not uniform in panel “i”.
3) HSQC spectra for the interaction of HusA with P8 should be provided (analogous to Supplementary
Fig. 18A, where the authors have done a nice job of showing the data down to noise level). Specifically, HSQC superpositions of DPIX and P8 would make for direct comparison. Similarly, the authors would also need to show an HSQC comparison of HusA alone and bound to P8. Indeed, Supplementary Fig. 21 is helpful in analyzing the exchange regimes of a couple of residues, but it doesn't give a global picture of […]

Row | SMILES | reduction of haemin affinity compared to wild-type [1] | Kd ([2]; HusA wild-type 1 µM, fit to 1:1 binding model) | Kd [3] | effect on growth ([4]; 0.5 µM P8 added prior to the commencement of growth (low bacteria density), dipyridyl) | effect on growth ([4]; 0.5 µM P8 added to the actively growing culture (high bacteria density)) | effect on growth ([4]; 2.5 µM P8 added prior to the commencement of growth, dipyridyl) | effect on growth ([4]; 2.5 µM P8 added to the actively growing culture, relative lower density at stationary phase) | Kd ([2]; estimate by comparison to other porphyrins, not fitted, UV-visible absorption and fluorescence data, read-out: affinity for HusA)
1 | C=CC1=C(C)c2cc3[nH]c(cc4nc(cc5[nH]c(cc1n2)c(C)c5CCC(=O)O)C(CCC(=O)O)=C4C)c(C)c3C=C.[Fe+3] [haemin] | > 50% | 7.3 ± 1.1 µM | ~0.002 µM | – | – | – | – | –
2 | CC1=Cc2cc3[nH]c(cc4nc(cc5[nH]c(cc1n2)cc5C)C(C)=C4CCC(=O)N[C@@H](CCCCNC(=O)OC(C)(C)C)C(=O)NCCn1c([N+](=O)[O-])cnc1C)c(CCC(=O)O)c3C [P8] | – | – | – | retards the growth | retard growth | fails to growth | retard growth | 1 to 10 µM
